In patent US20250382305A1 (PTC THERAPEUTICS, INC., priority 2022, published 2025):

Columns and labels:
ATXN3 pre-mRNA = assay: RT-qPCR Assay to Quantify Exon 4 Skipping in ATXN3 pre-mRNA in Cells; type: cell-based; settings: percent exon 4 skipping in ATXN3 pre-mRNA, RT-qPCR of cell lysates; average IC50
Procedure, shortened: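 Cells plated at 10,000/well onto a 7-point, 3.16-fold DMSO dilution series (duplicates), incubated 24 h at 37 °C, then lysed. Exon 4 skipping measured by one-step RT-qPCR (48 °C RT, 40 cycles); IC50 interpolated from dose-response fit of percent skipping.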

[1] = test system: Total ATXN3 (tATXN3) protein; assay: Endogenous Total ATXN3 (tATXN3) Protein Assay (MSD immunoassay of cell lysates); type: cell-based; settings: average IC50, total ATXN3 protein in cell lysate after 48 h with compound (Table 1)
Procedure, shortened: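 Cells in DMEM/10% FBS were plated at 10,000 per well onto 7-point, 3.16-fold compound dilutions in duplicate for 48 h at 37° C, then lysed. Total ATXN3 in lysates was measured by MSD sandwich immunoassay: mouse anti-ATXN3 capture, rabbit anti-ATXN3 detection, SULFO-TAG anti-rabbit. Average IC50 was reported in star bins.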

**Q.** With `N[C@@H]1CCCCC[C@H]1c1sc2c(NCc3cccs3)cc(Cl)nc2c1-c1ccccc1` [Compound 142, 2-((1R,2R)-2-aminocycloheptyl)-5-chloro-3-phenyl-N-(thiophen-2-ylmethyl)thieno[3,2-b]pyridin-7-amine] as the molecule, how does the IC50 (ATXN3 pre-mRNA) read?
**A.** > 1000 nM

**Q.** And the IC50 [1]?
**A.** > 1000 nM

**Q.** Which results are given for `Cc1c([C@@H]2CCC[C@H]2N)sc2c(NCc3ccco3)cc(Cl)nc12` [Compound 145, 2-((1R,2R)-2-aminocyclopentyl)-5-chloro-N-(furan-2-ylmethyl)-3-methylthieno[3,2-b]pyridin-7-amine]?
**A.** IC50 (ATXN3 pre-mRNA): 30 to 300 nM; IC50 [1]: > 1000 nM

**Q.** Which IC50 (ATXN3 pre-mRNA) does the source give for `Cc1c([C@@H]2[C@@H](N)CCCC2(F)F)sc2c(NCc3cccs3)cc(Cl)nc12` [Compound 338, 2-((1R,6S)-6-amino-2,2-difluorocyclohexyl)-5-chloro-3-methyl-N-(thiophen-2-ylmethyl)thieno[3,2-b]pyridin-7-amine] here?
**A.** 30 to 300 nM

**Q.** What about the IC50 [1] of the same molecule?
**A.** 30 to 300 nM

**Q.** With `N[C@@H]1CC=CC[C@H]1c1sc2c(NCc3cccs3)cc(Cl)nc2c1C#CCCCO.N[C@H]1CC=CC[C@@H]1c1sc2c(NCc3cccs3)cc(Cl)nc2c1C#CCCCO` (mixture of isomers) [Compound 175, 5-(2-((1R,6R)-6-aminocyclohex-3-en-1-yl)-5-chloro-7-((thiophen-2-ylmethyl)amino)thieno[3,2-b]pyridin-3-yl)pent-4-yn-1-ol and 5-(2-((1S,6S)-6-aminocyclohex-3-en-1-yl)-5-chloro-7-((thiophen-2-ylmethyl)amino)thieno[3,2-b]pyridin-3-yl)pent-4-yn-1-ol] as the molecule, how does the IC50 (ATXN3 pre-mRNA) read?
**A.** ≤ 30 nM

**Q.** And the IC50 [1]?
**A.** ≤ 30 nM

**Q.** `N[C@H]1CCCO[C@@H]1c1sc2c(NCc3cccs3)cc(Cl)nc2c1Cl` [Compound 18, 2-[(2S,3S)-3-aminotetrahydropyran-2-yl]-3,5-dichloro-N-(2-thienylmethyl)thieno[3,2-b]pyridin-7-amine] was tested. Which IC50 (ATXN3 pre-mRNA) did it give?
**A.** ≤ 30 nM

**Q.** What about the IC50 [1] of the same molecule?
**A.** ≤ 30 nM

**Q.** With `N[C@@H]1CCCO[C@H]1c1sc2c(NCc3ccccc3F)cc(Cl)nc2c1Br.N[C@H]1CCCO[C@@H]1c1sc2c(NCc3ccccc3F)cc(Cl)nc2c1Br` (mixture of isomers) [Compound 29, 2-((2R,3R)-3-aminotetrahydro-2H-pyran-2-yl)-3-bromo-5-chloro-N-(2-fluorobenzyl)thieno[3,2-b]pyridin-7-amine and 2-((2S,3S)-3-aminotetrahydro-2H-pyran-2-yl)-3-bromo-5-chloro-N-(2-fluorobenzyl)thieno[3,2-b]pyridin-7-amine] as the molecule, how does the IC50 (ATXN3 pre-mRNA) read?
**A.** 30 to 300 nM

**Q.** And the IC50 [1]?
**A.** 30 to 300 nM

**Q.** Which results are given for `Cc1c([C@@H]2CCC[C@H]2N)sc2c(NCc3ccccc3)cc(Cl)nc12` [Compound 160, 2-((1R,2R)-2-aminocyclopentyl)-N-benzyl-5-chloro-3-methylthieno[3,2-b]pyridin-7-amine]?
**A.** IC50 (ATXN3 pre-mRNA): > 1000 nM; IC50 [1]: > 1000 nM

**Q.** What does the source list for `N[C@H]1CCCCCC[C@@H]1c1sc2c(NCc3cccs3)cc(Cl)nc2c1Cl` [Compound 96, 2-((1S,2S)-2-aminocyclooctyl)-3,5-dichloro-N-(thiophen-2-ylmethyl)thieno[3,2-b]pyridin-7-amine]?
**A.** IC50 (ATXN3 pre-mRNA): 30 to 300 nM; IC50 [1]: 30 to 300 nM

**Q.** `CN(Cc1ccco1)c1cc(Cl)nc2c(C#CCCCO)c([C@H]3CC=CC[C@@H]3N)sc12` [Compound 336, 5-(2-((1S,6S)-6-aminocyclohex-3-en-1-yl)-5-chloro-7-((furan-2-ylmethyl)(methyl)amino)thieno[3,2-b]pyridin-3-yl)pent-4-yn-1-ol] was tested. Which IC50 (ATXN3 pre-mRNA) did it give?
**A.** 30 to 300 nM

**Q.** What about the IC50 [1] of the same molecule?
**A.** 30 to 300 nM

**Q.** Which IC50 (ATXN3 pre-mRNA) does the source give for `N[C@@H]1COCC[C@H]1c1sc2c(NCc3ccccc3)cc(Cl)nc2c1Br.N[C@H]1COCC[C@@H]1c1sc2c(NCc3ccccc3)cc(Cl)nc2c1Br` (mixture of isomers) [Compound 328, 2-((3R,4S)-3-aminotetrahydro-2H-pyran-4-yl)-N-benzyl-3-bromo-5-chlorothieno[3,2-b]pyridin-7-amine and 2-((3S,4R)-3-aminotetrahydro-2H-pyran-4-yl)-N-benzyl-3-bromo-5-chlorothieno[3,2-b]pyridin-7-amine] here?
**A.** 30 to 300 nM

**Q.** What about the IC50 [1] of the same molecule?
**A.** 30 to 300 nM

**Q.** `N[C@H]1CCCO[C@@H]1c1sc2c(NCc3ccccc3)cc(Cl)nc2c1I` [Compound 136, 2-((2S,3S)-3-aminotetrahydro-2H-pyran-2-yl)-N-benzyl-5-chloro-3-iodothieno[3,2-b]pyridin-7-amine] was tested. Which IC50 (ATXN3 pre-mRNA) did it give?
**A.** ≤ 30 nM

**Q.** What about the IC50 [1] of the same molecule?
**A.** ≤ 30 nM

**Q.** What does the source list for `N[C@H]1CC=C[C@@H](O)[C@@H]1c1sc2c(NCc3cccs3)cc(Cl)nc2c1Cl` [Compound 377, (1R,5S,6R)-5-amino-6-(3,5-dichloro-7-((thiophen-2-ylmethyl)amino)thieno[3,2-b]pyridin-2-yl)cyclohex-2-en-1-ol]?
**A.** IC50 (ATXN3 pre-mRNA): 30 to 300 nM; IC50 [1]: 30 to 300 nM

**Q.** `N[C@H]1CCCC(F)(F)[C@@H]1c1sc2c(NCc3ccco3)nc(Cl)nc2c1Br` [Compound 201, 6-((1R,6S)-6-amino-2,2-difluorocyclohexyl)-7-bromo-2-chloro-N-(furan-2-ylmethyl)thieno[3,2-d]pyrimidin-4-amine] was tested. Which IC50 (ATXN3 pre-mRNA) did it give?
**A.** ≤ 30 nM

**Q.** And the IC50 [1]?
**A.** ≤ 30 nM

**Q.** With `Cc1c([C@H]2COCC[C@@H]2N)sc2c(NCc3ccco3)cc(Cl)nc12` [Compound 260, 2-((3R,4S)-4-aminotetrahydro-2H-pyran-3-yl)-5-chloro-N-(furan-2-ylmethyl)-3-methylthieno[3,2-b]pyridin-7-amine] as the molecule, how does the IC50 (ATXN3 pre-mRNA) read?
**A.** ≤ 30 nM

**Q.** What about the IC50 [1] of the same molecule?
**A.** 30 to 300 nM

**Q.** What does the source list for `N[C@H]1CC=CC[C@@H]1c1sc2c(NCc3nccs3)cc(Cl)nc2c1Cl` [Compound 178, 2-((1S,6S)-6-aminocyclohex-3-en-1-yl)-3,5-dichloro-N-(thiazol-2-ylmethyl)thieno[3,2-b]pyridin-7-amine]?
**A.** IC50 (ATXN3 pre-mRNA): ≤ 30 nM; IC50 [1]: ≤ 30 nM

**Q.** Which results are given for “5-(5-chloro-2-((1R,6R)-6-(methylamino)cyclohex-3-en-1-yl)-7-((thiophen-2-ylmethyl)amino)thieno[3,2-b]pyridin-3-yl)pent-4-yn-1-ol and 5-(5-chloro-2-((1S,6S)-6-(methylamino)cyclohex-3-en-1-yl)-7-((thiophen-2-ylmethyl)amino)thieno[3,2-b]pyridin-3-yl)pent-4-yn-1-ol [Compound 288]”?
**A.** IC50 (ATXN3 pre-mRNA): 30 to 300 nM; IC50 [1]: 30 to 300 nM

**Q.** Which results are given for `N[C@@H]1CCCCC[C@@H]1c1sc2c(NCc3cccs3)cc(Cl)nc2c1Br` [Compound 72, 2-((1S,2R)-2-aminocycloheptyl)-3-bromo-5-chloro-N-(thiophen-2-ylmethyl)thieno[3,2-b]pyridin-7-amine]?
**A.** IC50 (ATXN3 pre-mRNA): > 1000 nM; IC50 [1]: > 1000 nM

**Q.** Which IC50 (ATXN3 pre-mRNA) does the source give for `Cc1c([C@H]2CC=C(C(=O)O)C[C@@H]2N)sc2c(NCc3cccs3)cc(Cl)nc12` [Compound 446, (4S,5S)-5-amino-4-(5-chloro-3-methyl-7-((thiophen-2-ylmethyl)amino)thieno[3,2-b]pyridin-2-yl)cyclohex-1-ene-1-carboxylic acid] here?
**A.** ≤ 30 nM

**Q.** What about the IC50 [1] of the same molecule?
**A.** ≤ 30 nM

**Q.** What does the source list for “6-((1S,6S)-6-aminocyclohex-3-en-1-yl-2,2,3,4,5,5-d6)-7-bromo-2-chloro-N-(thiophen-2-ylmethyl)thieno[3,2-d]pyrimidin-4-amine [Compound 183]”?
**A.** IC50 (ATXN3 pre-mRNA): ≤ 30 nM; IC50 [1]: ≤ 30 nM

**Q.** How did the IC50 (ATXN3 pre-mRNA) turn out when `C#Cc1c([C@H]2CCCC[C@@H]2N)sc2c(NCc3ccccc3F)cc(Cl)nc12` [Compound 311, 2-((1S,2S)-2-aminocyclohexyl)-5-chloro-3-ethynyl-N-(2-fluorobenzyl)thieno[3,2-b]pyridin-7-amine] was run?
**A.** 30 to 300 nM

**Q.** And the IC50 [1]?
**A.** 30 to 300 nM

**Q.** Which results are given for “2-((1R,2R)-2-aminocyclohexyl)-N-benzyl-5-chloro-3-(prop-1-yn-1-yl)thieno[3,2-b]pyridin-7-amine and 2-((1S,2S)-2-aminocyclohexyl)-N-benzyl-5-chloro-3-(prop-1-yn-1-yl)thieno[3,2-b]pyridin-7-amine [Compound 226]”?
**A.** IC50 (ATXN3 pre-mRNA): ≤ 30 nM; IC50 [1]: ≤ 30 nM

**Q.** Which IC50 (ATXN3 pre-mRNA) does the source give for `N[C@@H]1CCCC[C@H]1c1sc2c(NCc3cccs3)cc(Cl)nc2c1C(F)(F)F.N[C@H]1CCCC[C@@H]1c1sc2c(NCc3cccs3)cc(Cl)nc2c1C(F)(F)F` (mixture of isomers) [Compound 356, 2-((1S,2S)-2-aminocyclohexyl)-5-chloro-N-(thiophen-2-ylmethyl)-3-(trifluoromethyl)thieno[3,2-b]pyridin-7-amine and 2-((1R,2R)-2-aminocyclohexyl)-5-chloro-N-(thiophen-2-ylmethyl)-3-(trifluoromethyl)thieno[3,2-b]pyridin-7-amine] here?
**A.** 30 to 300 nM

**Q.** And the IC50 [1]?
**A.** 30 to 300 nM

**Q.** With `CC#Cc1c([C@H]2CCCC[C@@H]2N)n(C(F)F)c2c(NCc3ccco3)nc(Cl)nc12` [Compound 331, 6-((1S,2S)-2-aminocyclohexyl)-2-chloro-5-(difluoromethyl)-N-(furan-2-ylmethyl)-7-(prop-1-yn-1-yl)-5H-pyrrolo[3,2-d]pyrimidin-4-amine] as the molecule, how does the IC50 (ATXN3 pre-mRNA) read?
**A.** 30 to 300 nM

**Q.** And the IC50 [1]?
**A.** 30 to 300 nM

**Q.** Which IC50 (ATXN3 pre-mRNA) does the source give for `N[C@H]1CCCO[C@@H]1c1sc2c(NCc3cccs3)cc(Cl)nc2c1Br` [Compound 56, 2-((2S,3S)-3-aminotetrahydro-2H-pyran-2-yl)-3-bromo-5-chloro-N-(thiophen-2-ylmethyl)thieno[3,2-b]pyridin-7-amine] here?
**A.** 30 to 300 nM

**Q.** What about the IC50 [1] of the same molecule?
**A.** 300 to 1000 nM

**Q.** “6-((1R,6R)-6-aminocyclohex-3-en-1-yl-2,2,3,4,5,5-d6)-2-chloro-N-(furan-2-ylmethyl)-7-methylthieno[3,2-d]pyrimidin-4-amine and 6-((1S,6S)-6-aminocyclohex-3-en-1-yl-2,2,3,4,5,5-d6)-2-chloro-N-(furan-2-ylmethyl)-7-methylthieno[3,2-d]pyrimidin-4-amine [Compound 297]” was tested. Which IC50 (ATXN3 pre-mRNA) did it give?
**A.** 30 to 300 nM

**Q.** What about the IC50 [1] of the same molecule?
**A.** 30 to 300 nM

**Q.** Which IC50 (ATXN3 pre-mRNA) does the source give for `CC#CCNc1cc(Cl)nc2c(Br)c([C@@H]3CC(C)=C(C)C[C@H]3N)sc12` [Compound 438, 2-((1R,6R)-6-amino-3,4-dimethylcyclohex-3-en-1-yl)-3-bromo-N-(but-2-yn-1-yl)-5-chlorothieno[3,2-b]pyridin-7-amine] here?
**A.** 30 to 300 nM

**Q.** And the IC50 [1]?
**A.** 300 to 1000 nM
